How the values were obtained:
[1] = Hershberger Test; assay type: in vivo
[2] = target: T1, progesterone receptor of the rabbit uterus (Oryctolagus cuniculus, UniProt P06186); test: Binding to the progesterone receptor of the rabbit uterus (reference substance progesterone)
T1 construct: from tissue; host or cells: rabbit uterus
T1 sequence (P06186 1-930): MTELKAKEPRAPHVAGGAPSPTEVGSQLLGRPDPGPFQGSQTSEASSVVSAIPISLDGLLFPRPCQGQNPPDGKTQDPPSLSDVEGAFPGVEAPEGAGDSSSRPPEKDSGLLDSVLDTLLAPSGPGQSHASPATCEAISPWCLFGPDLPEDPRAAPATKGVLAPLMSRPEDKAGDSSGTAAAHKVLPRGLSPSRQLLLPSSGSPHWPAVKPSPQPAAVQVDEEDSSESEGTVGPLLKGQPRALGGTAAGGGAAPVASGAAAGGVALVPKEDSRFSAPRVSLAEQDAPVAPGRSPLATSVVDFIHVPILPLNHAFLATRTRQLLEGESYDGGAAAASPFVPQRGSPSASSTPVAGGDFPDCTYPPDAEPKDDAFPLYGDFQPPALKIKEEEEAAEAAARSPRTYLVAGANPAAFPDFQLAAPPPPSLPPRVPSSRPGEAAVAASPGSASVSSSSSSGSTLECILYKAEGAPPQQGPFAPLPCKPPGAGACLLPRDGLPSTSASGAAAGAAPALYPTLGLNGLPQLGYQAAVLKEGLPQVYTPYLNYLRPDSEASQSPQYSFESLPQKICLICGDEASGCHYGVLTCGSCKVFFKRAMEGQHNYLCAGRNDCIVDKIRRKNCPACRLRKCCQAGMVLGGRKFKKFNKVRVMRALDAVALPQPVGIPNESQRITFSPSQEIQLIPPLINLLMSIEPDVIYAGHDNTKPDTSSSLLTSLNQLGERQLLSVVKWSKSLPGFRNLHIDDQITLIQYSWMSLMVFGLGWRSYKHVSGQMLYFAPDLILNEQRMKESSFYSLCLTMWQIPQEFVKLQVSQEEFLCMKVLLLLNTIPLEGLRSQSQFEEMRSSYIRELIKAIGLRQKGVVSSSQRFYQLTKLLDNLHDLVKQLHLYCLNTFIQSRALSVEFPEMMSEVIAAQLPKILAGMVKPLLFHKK

[3] = target: T2, androgen receptor of the rat prostate (Rattus norvegicus, UniProt P15207); test: Binding to the androgen receptor of the rat prostate (reference substance R 1881); conditions: relative to reference substance R 1881 (17β-hydroxy-17α-methyl-estra-4,9,11-trien-3-one)
T2 construct: from tissue; host or cells: rat prostate
T2 sequence (P15207 1-902): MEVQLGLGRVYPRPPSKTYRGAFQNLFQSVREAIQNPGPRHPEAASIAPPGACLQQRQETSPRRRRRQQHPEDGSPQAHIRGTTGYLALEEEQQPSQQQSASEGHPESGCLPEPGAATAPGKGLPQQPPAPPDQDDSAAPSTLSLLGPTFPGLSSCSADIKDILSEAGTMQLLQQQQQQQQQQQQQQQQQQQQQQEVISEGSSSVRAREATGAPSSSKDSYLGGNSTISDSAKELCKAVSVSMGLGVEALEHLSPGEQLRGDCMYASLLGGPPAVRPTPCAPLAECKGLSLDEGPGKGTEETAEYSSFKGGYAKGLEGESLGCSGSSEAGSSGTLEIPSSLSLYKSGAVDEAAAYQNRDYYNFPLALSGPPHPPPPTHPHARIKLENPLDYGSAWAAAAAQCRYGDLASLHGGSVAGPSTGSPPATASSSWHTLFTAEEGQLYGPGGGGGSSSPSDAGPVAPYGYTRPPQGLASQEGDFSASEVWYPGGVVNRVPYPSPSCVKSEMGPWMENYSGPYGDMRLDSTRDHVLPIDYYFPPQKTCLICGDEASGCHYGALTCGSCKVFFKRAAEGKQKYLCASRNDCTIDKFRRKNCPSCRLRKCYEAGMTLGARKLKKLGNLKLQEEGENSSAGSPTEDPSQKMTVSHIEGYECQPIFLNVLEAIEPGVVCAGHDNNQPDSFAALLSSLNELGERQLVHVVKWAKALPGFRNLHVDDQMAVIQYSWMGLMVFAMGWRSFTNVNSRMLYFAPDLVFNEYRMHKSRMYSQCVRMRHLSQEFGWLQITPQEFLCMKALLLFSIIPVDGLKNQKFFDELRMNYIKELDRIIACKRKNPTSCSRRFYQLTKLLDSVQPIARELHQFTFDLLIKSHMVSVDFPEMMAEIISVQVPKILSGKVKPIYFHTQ

[4] = Pregnancy maintenance test; assay type: in vivo

C[C@]12CCC(=O)C=C1CC[C@@H]1[C@@H]2CC[C@]2(C)[C@@H](O)C[C@@H]3C[C@]312 [J 1193, 17β-hydroxy-14α,15α-methylen-androst-4-en-3-one]
androgenic activity [1]: significant androgenic activity | binding to the progesterone receptor [2]: virtually no binding | binding to the androgen receptor [3]: 24±3% | gestagenic action [4]: very little gestagenic action

Reference: patent publication US6534490B1, “Unsaturated 14, 15-cyclopropanoandrostanes, method for the production thereof and pharmaceutical preparations containing said compounds” (Jenapharm GmbH & Co. KG., priority 1998, dated 2003)
